Data on twelve molecules can be found in ChEMBL document CHEMBL1201862, “PubChem BioAssay data set” (2004).

Test [1] deals with T1, Oxysterols receptor LXR-beta (Homo sapiens, UniProt P55055).
T1 sequence (P55055 whole entry): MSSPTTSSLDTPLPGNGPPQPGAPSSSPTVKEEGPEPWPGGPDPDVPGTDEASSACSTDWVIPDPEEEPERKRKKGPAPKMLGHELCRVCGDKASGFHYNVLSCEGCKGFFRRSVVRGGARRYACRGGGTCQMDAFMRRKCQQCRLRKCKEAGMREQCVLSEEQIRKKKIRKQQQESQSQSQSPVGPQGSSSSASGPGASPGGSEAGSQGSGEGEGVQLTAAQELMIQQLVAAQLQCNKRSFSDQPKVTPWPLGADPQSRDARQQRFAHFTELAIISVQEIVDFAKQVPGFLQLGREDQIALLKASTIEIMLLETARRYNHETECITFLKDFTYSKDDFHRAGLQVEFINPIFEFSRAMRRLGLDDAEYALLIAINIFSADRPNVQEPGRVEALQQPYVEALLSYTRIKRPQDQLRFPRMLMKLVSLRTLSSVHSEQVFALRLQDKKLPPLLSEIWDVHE
It is filed as functional, cell-based.

In a further test the target is Albumin (Bos taurus, UniProt P02769). Put plainly: Counterscreen for inhibitors of T-cell receptor (TCR)-CD3 interaction: Fluorescence-based biochemical high throughput dose response assay to identify inhibitors of T-cell receptor (TCR)-CD3 interaction using a TAMRA-labeled BSA probe. It is filed as functional. On the technique in general: The purpose of a counterscreen is to sort out artefacts and off-target activity.

The subject of a further test is HeLa. Put plainly: viability loss in HeLa cells – cell-based, ATP luminescence, cherry-pick samples, cytotoxicity control, dose response (AID 687004). It is filed as functional. The conditions noted are these: Homo sapiens.
For a further test, the target named is T2, fMet-Leu-Phe receptor (Homo sapiens, UniProt P21462).
T2 sequence (P21462 whole entry): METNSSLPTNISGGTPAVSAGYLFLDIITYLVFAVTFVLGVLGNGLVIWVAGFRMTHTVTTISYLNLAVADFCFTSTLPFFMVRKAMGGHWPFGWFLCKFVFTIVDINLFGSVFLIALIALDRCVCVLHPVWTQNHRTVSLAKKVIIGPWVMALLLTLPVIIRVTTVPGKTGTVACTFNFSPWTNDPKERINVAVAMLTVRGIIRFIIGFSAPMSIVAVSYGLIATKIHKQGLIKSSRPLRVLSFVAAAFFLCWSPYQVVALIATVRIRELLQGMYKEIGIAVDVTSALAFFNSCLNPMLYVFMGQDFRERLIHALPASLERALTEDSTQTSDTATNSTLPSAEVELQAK
Kind of test: formyl peptide receptor binders – dose response (AID 519). Type of test: functional.

A short description of test [2]: cells. Type of test: functional, cell-based.
In test [3] the target is T3, Trace amine-associated receptor 1 (Homo sapiens, UniProt Q96RJ0).
T3 sequence (Q96RJ0 whole entry): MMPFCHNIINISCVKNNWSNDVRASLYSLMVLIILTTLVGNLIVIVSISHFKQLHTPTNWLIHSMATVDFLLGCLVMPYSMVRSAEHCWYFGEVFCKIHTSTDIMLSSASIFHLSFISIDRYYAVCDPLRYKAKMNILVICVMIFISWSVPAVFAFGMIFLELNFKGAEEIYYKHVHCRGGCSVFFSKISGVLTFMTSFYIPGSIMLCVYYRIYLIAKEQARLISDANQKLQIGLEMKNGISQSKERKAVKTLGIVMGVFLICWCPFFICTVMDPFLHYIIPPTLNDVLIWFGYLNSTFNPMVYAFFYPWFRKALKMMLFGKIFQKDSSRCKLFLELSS
Kind of test: Fluorescence-based cell-based high throughput dose response assay to identify agonists of the human trace amine associated receptor 1 (TAAR1). It is filed as functional.

The target in test [4] is T3, Trace amine-associated receptor 1. Kind of test: Counterscreen for agonists of the human trace amine associated receptor 1 (hTAAR1): Fluorescence-based cell-based high throughput dose response assay to identify hTAAR1 agonist that also desensitize TAAR1 receptor response. Type of test: functional.
Test [5] can be described thus: cells. It is filed as functional, cell-based. The source holds these as a separate data set.
The nature of test [6]: T. cruzi growth inhibition in host cells, dose response, cell-based, plate reader, dry powder, set 2 (AID 652275). It is filed as functional.
Test [7] can be described thus: P. falciparum Dd2 growth inhibitors, dose response, SYBR Green, cherry-picked samples (AID 1159567). It is filed as functional, cell-based.
A further test addresses Cytochrome P450 2C19 (Homo sapiens, UniProt P33261). Kind of test: Cytochrome panel assay with activity outcomes. Panel member name: p450-cyp2c19 Compounds with AC50 equal or less than 10 uM are considered active. Type of test: functional. The conditions noted are these: read-out: AC50.
The next test concerns the target Cytochrome P450 2C9 (Homo sapiens, UniProt P11712).
Test [8] in a line: NIH-3T3 fibroblast cytotoxicity, dose response, cytotoxicity control, cell-based, fluorescence, Alamar Blue, secondary assay (AID 2327).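 Note: NIH-3T3 mouse fibroblasts cultured with fluconazole at 8 µg/mL.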 Type of test: functional. On the technique in general: Alamar Blue is a resazurin reagent that responds to reducing activity.
The next test addresses T4, Aminopeptidase N (Plasmodium falciparum FcB1/Columbia, UniProt O96935).
T4 sequence (O96935 whole entry): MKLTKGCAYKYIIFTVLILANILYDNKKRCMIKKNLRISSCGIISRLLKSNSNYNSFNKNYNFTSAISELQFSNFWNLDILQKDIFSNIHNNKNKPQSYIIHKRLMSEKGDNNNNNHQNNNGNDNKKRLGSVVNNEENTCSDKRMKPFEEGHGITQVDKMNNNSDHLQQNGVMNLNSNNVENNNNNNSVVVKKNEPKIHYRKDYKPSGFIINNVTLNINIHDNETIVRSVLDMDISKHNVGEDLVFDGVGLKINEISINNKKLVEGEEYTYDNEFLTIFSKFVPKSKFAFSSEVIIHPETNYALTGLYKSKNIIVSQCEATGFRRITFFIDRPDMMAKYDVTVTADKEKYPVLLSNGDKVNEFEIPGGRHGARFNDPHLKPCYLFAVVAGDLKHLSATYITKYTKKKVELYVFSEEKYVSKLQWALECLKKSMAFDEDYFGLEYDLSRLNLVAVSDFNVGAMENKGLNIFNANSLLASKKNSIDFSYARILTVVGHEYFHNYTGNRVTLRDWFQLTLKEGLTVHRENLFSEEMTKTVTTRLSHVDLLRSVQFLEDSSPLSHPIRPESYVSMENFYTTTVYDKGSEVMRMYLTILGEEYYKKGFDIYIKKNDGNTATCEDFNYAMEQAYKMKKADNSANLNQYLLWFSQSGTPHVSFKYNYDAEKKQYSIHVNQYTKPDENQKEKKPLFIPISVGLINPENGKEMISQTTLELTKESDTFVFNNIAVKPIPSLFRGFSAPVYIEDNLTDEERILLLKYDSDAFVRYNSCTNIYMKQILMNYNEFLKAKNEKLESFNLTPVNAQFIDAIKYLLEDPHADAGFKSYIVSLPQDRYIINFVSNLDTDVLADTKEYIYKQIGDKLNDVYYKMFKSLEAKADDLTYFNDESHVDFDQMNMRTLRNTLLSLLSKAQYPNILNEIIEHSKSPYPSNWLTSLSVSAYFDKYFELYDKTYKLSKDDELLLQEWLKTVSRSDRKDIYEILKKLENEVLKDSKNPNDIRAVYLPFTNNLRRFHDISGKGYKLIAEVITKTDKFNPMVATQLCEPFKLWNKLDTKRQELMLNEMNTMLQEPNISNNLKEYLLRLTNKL
Put plainly: malaria alanyl aminopeptidase activity blockers – biochemical, fluorogenic H-Leu-NHMec substrate, 1536-well (AID 1445). More on the design: species or system Plasmodium falciparum 3D7, 3D7.

A short description of test [9]: cells. It is filed as functional, cell-based. This is another data set of the same source.
Test [10] in a line: fluconazole-exposed Candida albicans growth modulators – fluorescence, retest, confirmation (AID 2467). Type of test: functional, cell-based.
Test [11] is described as follows: cells. Type of test: functional, cell-based. The source holds these as a separate data set.
Test [12] in a line: Trypanosoma cruzi growth suppression in host cells – NIH3T3 host cells, beta-gal luminescence, confirmation (AID 2044).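 Note: intracellular parasites grown in NIH/3T3 mouse fibroblasts as host cells; luminescent beta-galactosidase reporter signal from transgenic T. cruzi replicating inside host cells; inhibitors lower the luminescence signal.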 Type of test: functional, cell-based.
Test [13] in a line: NIH3T3 cell viability loss – ATP luminescence, mouse fibroblasts, counter-screen, dose response (AID 2010).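 Note: cells exposed to compound for about 90 hours before reading.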 It is filed as functional, cell-based.
Test [14] concerns the target Induced myeloid leukemia cell differentiation protein Mcl-1 (Homo sapiens, UniProt Q07820). It is filed as functional.
The subject of another test is INS1. Kind of test: INS-1E survival protection against cytokine death – cell-based, luminescence, retest, dose response (AID 449756).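 Note: cell death triggered by IL-1 beta plus TNF-alpha plus IFN-gamma mixture; protective hits raise ATP signal compared with cytokine alone wells.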 Type of test: functional. Particulars: Rattus norvegicus.

The structures appear in SMILES notation. “And” between values parts separate entries of the source, which are not always exact repeats. Equal entries are not always repeated. Structures can show the parent of a compound that is named as a salt. The source made the active and inactive calls.

Chain of Albumin (P02769 whole entry): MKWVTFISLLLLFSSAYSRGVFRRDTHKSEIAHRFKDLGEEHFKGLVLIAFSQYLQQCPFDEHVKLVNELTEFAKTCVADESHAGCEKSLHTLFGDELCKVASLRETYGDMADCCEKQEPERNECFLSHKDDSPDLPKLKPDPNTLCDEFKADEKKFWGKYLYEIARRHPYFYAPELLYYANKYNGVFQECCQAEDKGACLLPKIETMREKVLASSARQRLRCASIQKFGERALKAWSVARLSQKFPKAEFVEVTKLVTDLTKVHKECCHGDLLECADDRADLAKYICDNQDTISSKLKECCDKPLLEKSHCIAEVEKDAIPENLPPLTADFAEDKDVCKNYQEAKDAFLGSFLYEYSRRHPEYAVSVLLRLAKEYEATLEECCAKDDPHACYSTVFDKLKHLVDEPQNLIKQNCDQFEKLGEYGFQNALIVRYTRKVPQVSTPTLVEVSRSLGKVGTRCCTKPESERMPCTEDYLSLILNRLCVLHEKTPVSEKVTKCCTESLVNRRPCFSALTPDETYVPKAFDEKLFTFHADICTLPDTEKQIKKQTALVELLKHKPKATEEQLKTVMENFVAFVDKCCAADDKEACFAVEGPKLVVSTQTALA
Chain of Induced myeloid leukemia cell differentiation protein Mcl-1 (Q07820 whole entry): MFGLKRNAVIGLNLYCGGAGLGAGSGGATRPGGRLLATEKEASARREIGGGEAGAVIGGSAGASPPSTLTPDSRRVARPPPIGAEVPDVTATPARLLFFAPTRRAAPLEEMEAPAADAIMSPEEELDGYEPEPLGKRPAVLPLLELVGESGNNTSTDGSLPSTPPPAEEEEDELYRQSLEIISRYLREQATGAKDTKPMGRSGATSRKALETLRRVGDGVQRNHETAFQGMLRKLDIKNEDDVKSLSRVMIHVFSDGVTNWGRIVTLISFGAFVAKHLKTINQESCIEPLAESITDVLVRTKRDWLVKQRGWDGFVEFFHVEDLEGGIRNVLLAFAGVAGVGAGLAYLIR
Chain of Cytochrome P450 2C9 (P11712 whole entry): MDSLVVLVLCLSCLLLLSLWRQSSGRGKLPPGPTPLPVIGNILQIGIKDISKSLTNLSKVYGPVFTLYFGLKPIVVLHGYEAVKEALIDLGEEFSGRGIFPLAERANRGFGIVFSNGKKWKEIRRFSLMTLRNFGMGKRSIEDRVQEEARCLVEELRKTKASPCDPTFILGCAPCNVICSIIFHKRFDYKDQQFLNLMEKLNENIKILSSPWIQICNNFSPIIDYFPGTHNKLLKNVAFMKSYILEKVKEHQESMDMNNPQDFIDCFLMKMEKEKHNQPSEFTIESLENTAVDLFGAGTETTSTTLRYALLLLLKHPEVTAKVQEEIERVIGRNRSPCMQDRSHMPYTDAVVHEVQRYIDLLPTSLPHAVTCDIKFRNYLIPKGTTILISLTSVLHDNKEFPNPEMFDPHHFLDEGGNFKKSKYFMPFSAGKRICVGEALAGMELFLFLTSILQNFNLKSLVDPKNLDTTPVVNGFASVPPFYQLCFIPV
Chain of Cytochrome P450 2C19 (P33261 whole entry): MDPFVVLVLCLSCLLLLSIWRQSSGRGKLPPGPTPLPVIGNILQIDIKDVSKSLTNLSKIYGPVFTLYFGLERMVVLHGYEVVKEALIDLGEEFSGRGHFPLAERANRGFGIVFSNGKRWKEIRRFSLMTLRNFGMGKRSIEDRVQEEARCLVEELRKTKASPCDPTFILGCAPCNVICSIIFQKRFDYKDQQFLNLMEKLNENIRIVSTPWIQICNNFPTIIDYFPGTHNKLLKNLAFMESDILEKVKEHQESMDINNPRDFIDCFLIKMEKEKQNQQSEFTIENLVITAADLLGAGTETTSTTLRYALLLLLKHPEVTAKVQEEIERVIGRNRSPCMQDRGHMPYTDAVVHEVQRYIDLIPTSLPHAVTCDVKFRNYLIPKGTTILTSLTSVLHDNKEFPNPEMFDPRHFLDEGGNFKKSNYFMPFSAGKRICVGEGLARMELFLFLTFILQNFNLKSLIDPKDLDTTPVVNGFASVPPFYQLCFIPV

By EC50 is commonly meant the concentration needed to bring the measured effect to its halfway point. As for `Cc1cc2ncc(-c3ccccc3)nc2cc1C` [AG1295], the EC50 in [1] is > 67.5 µM (inactive).

What is called IC50 is the concentration that gives 50% inhibition. For the molecule `CN=C(S)NNC(=O)c1oc2nc(-c3ccccc3)cc(-c3ccco3)c2c1N`, the IC50 at Albumin is > 94.1 µM (inactive).

For orientation: AC50 means the midpoint of the concentration-response curve, whichever way the signal moves. `CN1C(=O)c2cc(NC(=O)NC3CCCC3)ccc2OC[C@H]2O[C@@H](CC(=O)NC3CCC3)CC[C@@H]21`: in the test with HeLa, the AC50 was 25.9 µM (active).

A word on the Ki: it is a dissociation constant, usually derived from enzyme kinetics or from competition with a known ligand. Take `COc1ccc(C)cc1NC(=O)C1CCCCC1C(=O)O` (centres undefined): at fMet-Leu-Phe receptor, the Ki is > 66.7 µM (inactive).

As to `CC(N)Cc1ccc(O)cc1` (centres undefined) [HYDROXYAMPHETAMINE HYDROBROMIDE], the IC50 in “cells [2]” is > 29.9 µM (inactive); in [4] it was 11.8 µM (inactive) and 5.84 µM (active). In addition, the EC50 in [3] was 1.71 µM (active) and 1.18 µM (active); in the test “cells [5]”, > 29.9 µM (inactive).

Consider `C[C@H]1CN([C@@H](C)CO)C(=O)c2cccc(NC(=O)c3ccncc3)c2O[C@@H]1CN(C)Cc1cc(Cl)ccc1Cl`, for which, in [6], the AC50 is 57.3 nM (active).

`CC(C)(C)[S+]([O-])N1Cc2cc(C(=O)NCc3ccc4c(c3)OCO4)nc(-c3cccc(C#CCC4CCCC4)c3)c2[C@@H]1CCO` (some centres undefined): the AC50 was 883 nM (active) in test [6] and 3.54 µM (active) in test [7].

As to `C=CCN1C(=O)[C@@H](CC(=O)N2CCSCC2)[C@]2(C(=O)OC)CCCCC=C12`, the EC50 in [1] was > 67.5 µM (inactive).

For `CCOC(=O)Cc1cc(O)n2nc(C)c(-c3ccccc3)c2n1`, the figures for the AC50 at Cytochrome P450 2C19 and at Cytochrome P450 2C9 were 22.4 µM (inconclusive) and 39.8 µM (inconclusive), respectively. Also, the Ki at fMet-Leu-Phe receptor was 36.8 µM (inactive).

Consider `O=C(N/N=C/c1cc(Br)ccc1O)c1cccc(N2CCCC2=O)c1`, for which the EC50 in [8] was 15.4 µM (inconclusive); in “cells [9]”, 7.74 µM (active); in [10], 2.33 µM (active); in “cells [11]”, > 350 µM (not active). For the same molecule, the IC50 at Aminopeptidase N was 38.3 µM (active); at Albumin, > 94.1 µM (inactive).

As for `OC[C@H]1[C@H](c2ccc(Br)cc2)[C@@H]2CN(Cc3ccccn3)CCCCN12`, the AC50 in [6] was 3710 nM (active).

With `Cc1cc(/C=N/n2c(COc3ccccc3C)nc3ccccc3c2=O)c(O)c([N+](=O)[O-])c1`, the EC50 in [8] is > 150 µM (inactive); in [10], 1.37 µM (active); in test [12], 1 µM (active); in test [13], 6.51 µM (active). The values for the IC50 (in [14]; on Albumin) were 4.58 µM (active) and > 94.1 µM (inactive), respectively. Also, the AC50 with INS1 is 2.99 µM (active).
